Reference: US20050244335A1, “Methods and compositions related to increasing antitumor activity of chemotherapeutic agents” (priority 2004, published 2005)

Assays:
[1] = Pharmacokinetics and tissue distribution of carboplatin in CD-1 mice; assay type: in vivo; conditions: carboplatin 60 mg/kg iv
Experimental: Pharmacokinetic studies were carried out using a protocol similar to that previously described (Wang, 1999) using metabolism cages. Male CD-1 mice were pre-treated with DEX (s.c., 0.1 mg/day/mouse for 5 days) or saline (as controls), and, at 1 hr after the fifth dose of DEX, were given a single intravenously (i.v.) bolus administration of carboplatin (60 mg/kg) via a tail vein. At various times (5, 15, and 30 min, 1, 2, 4, 8, and 24 hr after drug dosing; 3 animals for each time point)), blood samples were collected in heparinized tubes and tissue samples removed. Plasma was separated by centrifugation at 20,000 g for 5 min. Tissues including liver, kidneys and spleen were immediately blotted on Whatman No. 1 filter paper, trimmed of extraneous fat or connective tissue, weighed, and homogenized in 0.9% NaCl physiological saline (5 mL per g of wet tissue weight). The resultant homogenates were stored at −70° C. until further analysis. Bone marrow cells were harvested by flushing the femurs with sterile physiological saline as reported previously (Zhang, 1993). The resultant bone marrow cell suspension was weighed and lysed by sonicating 5 times for periods of 10 sec. Following centrifugation at 20,000 g for 30 min, the supernatant was removed and stored at −70° C. until further analysis.
[…] in biological samples was analyzed by an analytical procedure involving micro-filtration and reversed-phase HPLC (Bullen, 1992). 200 μL of plasma or tissue homogenates or bone marrow suspension was added to the reservoir of a Centrifree™ micropartition system. The latter was capped and centrifuged at 2,000 g for 5 min. All filtrates were transferred into a new micro centrifuge tube and 6 μL of the filtrates was injected onto the HPLC column. The HPLC system consisted of a Hewlett Packard 1050 ChemStation with a UV detector (Agilent 1050 series). Determination of Carboplatin was achieved using a LiChrosorb™ diol (10 μm, 250×4.6 mm) analytical column with a LiChroCART 100 RP-18 guard column. The mobile phase for plasma was composed of 98:2 acetonitrile: H2O (vol/vol) and 89:11 acetonitrile: 0.015% H3PO4 (vol/vol) for urine and tissue samples. The flow rates were 2 mL/min (for plasma) and 1.1 mL/min (for urine and tissue samples). The column elute was monitored by UV at 229 nm. Quantitation of plasma or tissue carboplatin was carried out by using an external standard curve (0-4,000.0 μg/mL) that was freshly prepared daily. Linear regression and correlation analysis were carried out to establish the standard peak-area/concentration curves for carboplatin.
The significance of the differences among treated groups and controls were analyzed by ANOVA.

[2] = tested on: human breast cancer MDA-MB-468 xenografts; test: In vivo chemotherapy, breast cancer MDA-MB-468 xenograft model in nude mice; conditions: MDA-MB-468 model; agent alone
Excerpt: Cell Culture. […] All media contained 1% penicillin-streptomycin.
Data and Statistical Analysis.

SMILES: N.N.O=C([O-])C1(C(=O)[O-])CCC1.[Pt+2] [carboplatin]
- AUC of carboplatin in spleen, DEX pretreated relative to control mice [1]: approximately 16.5%
- carboplatin AUC decrease in bone marrow, DEX pretreated vs control mice [1]: 57.4%
- decrease of carboplatin uptake in liver by DEX pretreatment [1]: 40%
- AUC ([1]; bone marrow, DEX (+)): 517160 ng·h/mL
- CL ([1]; bone marrow, DEX (+)): 0.12 mL/g/h
- Cmax ([1]; bone marrow, DEX (+)): 20610 ng/mL
- T1/2 ([1]; bone marrow, DEX (+)): 922.8 min
- Vss ([1]; bone marrow, DEX (+)): 2.57 mL/g
- AUC ([1]; bone marrow, DEX (−)): 901600 ng·h/mL
- CL ([1]; bone marrow, DEX (−)): 0.07 mL/g/h
- Cmax ([1]; bone marrow, DEX (−)): 20140 ng/mL
- T1/2 ([1]; bone marrow, DEX (−)): 1708 min
- Vss ([1]; bone marrow, DEX (−)): 2.75 mL/g
- AUC ([1]; liver, DEX (+)): 25020 ng·h/mL
- CL ([1]; liver, DEX (+)): 2.40 mL/g/h
- Cmax ([1]; liver, DEX (+)): 16550 ng/mL
- T1/2 ([1]; liver, DEX (+)): 23.4 min
- Vss ([1]; liver, DEX (+)): 1.35 mL/g
- AUC ([1]; liver, DEX (−)): 38710 ng·h/mL
- CL ([1]; liver, DEX (−)): 1.55 mL/g/h
- Cmax ([1]; liver, DEX (−)): 25440 ng/mL
- T1/2 ([1]; liver, DEX (−)): 23.4 min
- Vss ([1]; liver, DEX (−)): 0.87 mL/g
- AUC ([1]; plasma, DEX (+)): 42690 ng·h/mL
- CL ([1]; plasma, DEX (+)): 1.41 mL/g/h
- Cmax ([1]; plasma, DEX (+)): 227580 ng/mL
- T1/2 ([1]; plasma, DEX (+)): 7.8 min
- Vss ([1]; plasma, DEX (+)): 0.26 mL/g
- AUC ([1]; plasma, DEX (−)): 44180 ng·h/mL
- CL ([1]; plasma, DEX (−)): 1.36 mL/g/h
- Cmax ([1]; plasma, DEX (−)): 352620 ng/mL
- T1/2 ([1]; plasma, DEX (−)): 5.4 min
- Vss ([1]; plasma, DEX (−)): 0.17 mL/g
- AUC ([1]; spleen, DEX (+)): 56720 ng·h/mL
- CL ([1]; spleen, DEX (+)): 1.06 mL/g/h
- Cmax ([1]; spleen, DEX (+)): 17790 ng/mL
- T1/2 ([1]; spleen, DEX (+)): 49.2 min
- Vss ([1]; spleen, DEX (+)): 1.25 mL/g
- AUC ([1]; spleen, DEX (−)): 344110 ng·h/mL
- CL ([1]; spleen, DEX (−)): 0.17 mL/g/h
- Cmax ([1]; spleen, DEX (−)): 118730 ng/mL
- T1/2 ([1]; spleen, DEX (−)): 45 min
- Vss ([1]; spleen, DEX (−)): 0.19 mL/g
- effect on tumor growth [2]: no effects on tumor growth
